Values after ≈ are worked out from the molar mass of the structure shown. Where two headings read alike, the source gives them in different places.
Tests used:
physchem = format: physicochemical; details: phosphate buffered saline, 26 °C, aqueous buffer, kinetic from dmso stock, pH 7.4 PBS, 1.0% DMSO, 24-hour incubation at ambient temperature
Method: Example 108: Kinetic Solubility Analysis
Buffer Preparation: 0.1 N HCl: Hydrochloric acid, 0.1 N standardized solution (MP Biomedicals part number 199569). 1×PBS, pH 7.4: Phosphate Buffered Saline (PBS) solution 10× (Fisher Bioreagent part number BP399-500) 50 mL was added to approximately 450 mL HPLC grade H2O. The volume of the solution was then adjusted to 500 mL for a total dilution factor of 1:10 and a final PBS concentration of 1×.
The final DMSO concentration was 1.0% (v/v) and maximum theoretical compound concentration is 100 μM (for compound stock concentration of 10 mM). The filter plate was sealed. Following 24-hour incubation at ambient temperature (24.2-27.5° C.), the samples were vacuum filtered and the filtrates were collected in a 96 well polypropylene plate for analysis. The collection plate was sealed for analysis. Filtrates were injected into the Antek 8060 chemiluminescent nitrogen detector for quantification. The results are reported in μM.
The filtrates were quantified with respect to this calibration curve. Each calculated solubility value was corrected for background nitrogen present in the DMSO and in the medium used to prepare the sample. All reported values for compounds containing adjacent nitrogen atoms in a ring structure were increased by approximately 25%.

HIV-1 (IIIB) = test: Antiviral (HIV) assay in MT-4 cells; format: cell-based; details: HIV-1 IIIB in MT-4 cells, 5 days incubation, Cell Titer Glo, average of at least two independent experiments
Outline: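 MT-4 cells, infected with HIV-1 IIIB (1:250 dilution of concentrated stock) or mock-infected, were exposed to 1:3 serially diluted compounds in RPMI with 10% FBS. After 5 days at 37° C., CellTiter-Glo luminescence was read. EC50 = concentration causing […], from sigmoidal dose-response fits.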

PBMCs = test: TFV-DP formation in peripheral blood mononuclear cells (PBMCs); format: in vitro ADME, human; details: activated PBMCs, 1 μM compound, 50% serum, 2 hrs at 37° C.; intracellular volume 0.2 pL/cell; average of at least two independent experiments
Method: Example 109: TFV-DP Formation in Peripheral Blood Mononuclear Cells (PBMCs)
Compounds were tested in a 96-well assay format for the level of TFV-DP loading in PBMCs in the presence of human serum. PBMCs were activated with 100 units/mL recombinant human […] and 2 μg/mL phytohaemagglutinin (PHA) for 36 hrs. After activation, PBMCs (2 million) were incubated with compounds (1 μM) and cell culture media with 50% serum in a 96 well plate for 2 hrs at 37° C. Cells were transferred to a 96 well deep block plate and spun down. Liquid was removed, and cells were washed 2× with 1 mL of 0.9% saline with spin downs between washes. After a final wash and liquid removal, 500 μL of MeOH+200 nM Cl-ATP+200 nM [adenine-^13C5]-tenofovir diphosphate (tetra ammonium salt) was added and thoroughly mixed with the cells. The plate was then spun down and 450 μL of sample was transferred to a new 96 well plate. Supernatants were then evaporated, reconstituted in 80 μl of 1 mM ammonium phosphate and thoroughly vortexed. Blank samples were pooled for serial dilution to construct calibration standards for TFV, TFV-DP and TFV-TP in pmol/million cells. Samples were then transferred to a short-well 96 well plate, centrifuged and injected on an LC-MS/MS for quantification. Values were reported in μM units using an intracellular volume of 0.2 pL/cell.

PHHs = test: TFV-DP formation in primary human hepatocytes (PHHs); format: in vitro ADME; details: 1 μM compound, 1 hour at 37° C., intracellular volume 3 pL/cell, average of at least two independent experiments
Method: Example 110: TFV-DP Formation in Primary Human Hepatocytes (PHHs)
Compounds were tested in a 24-well assay format for the level of TFV-DP formation in PHHs. Cells were seeded (4.0×10^5 cells/well) in collagen coated plates and incubated at 37° C. After 4-6 hours the liquid was removed, 500 μl of new media (2% FBS, 1.5% DMSO) was added, and the cells were incubated at 37° C. overnight. The media is then replaced (2% FBS, 1.0% DMSO), compounds (1 μM) were added and the cells were incubated at 37° C. in the presence of compounds for 1 hour. Media was then removed and cells were washed 2× with 500 μl of 0.9% saline. After a final wash and liquid removal, 500 μL of MeOH+200 nM Cl-ATP+200 nM [adenine-^13C5]-tenofovir diphosphate (tetra ammonium salt) was added and cells were incubated at −80° C. for 30 minutes. The cells were kept on water ice while the MeOH/standard supernatant is pipetted up and down several times and then transferred to a 96 deep-well plate. Supernatants were then evaporated, samples were reconstituted in 80 μl of 1 mM ammonium phosphate and then thoroughly vortexed. Blank samples were pooled for serial dilution to construct calibration standards for TFV, TFV-DP and TFV-TP in pmol/million cells. Samples are then transferred to a short-well 96 well plate, centrifuged and injected on an LC-MS/MS for quantification. […]

MT-4 cells = test: Cytotoxicity assay in MT-4 cells; format: cell-based, human; details: uninfected MT-4 cells, 5 days; average of at least two independent experiments; read-out: MT4 CC50
Method: Compounds were tested in a high-throughput 384-well assay format for their ability to inhibit the replication of HIV-1 (IIIB) in MT-4 cells. Compounds were serially diluted (1:3) in DMSO on 384-well polypropylene plates and further diluted 200-fold into complete RPMI media (10% FBS, 1% P/S) using the Biotek Micro Flow and Labcyte ECHO acoustic dispenser. Each plate contained up to 8 test compounds, with negative (no drug) and positive (5 μM AZT) controls. MT-4 cells were pre-treated with 10 μL of either RPMI (mock-infected) or a fresh 1:250 dilution of HIV-1 IIIB concentrated virus stock. Infected and uninfected MT-4 cells were further diluted in complete RPMI media and added to each plate using a Micro Flow dispenser. After 5 days incubation in a humidified and temperature-controlled incubator (37° C.), Cell Titer Glo (Promega) was added to the assay plates and chemiluminescence read using an Envision plate-reader. EC50 values were defined as the compound concentration that causes a 50% decrease in luminescence signal and were calculated using a sigmoidal dose-response model to generate curve fits and are shown in Table 1.
Example 105: Cytotoxicity Assay in MT-4 Cells
Assays were performed as described in Example 104 except uninfected MT-4 cells were added to each well containing test compound. In addition, 10 μM puromycin was added to the last column of each assay plate to assess a base level of cytotoxicity.

solubility kinetic at 24 h (physchem) [µg/mL]	EC50 (HIV-1 (IIIB); Human immunodeficiency virus 1, MT4, 120 h) [nM]	Structure (SMILES)	Average PBMC TFV-DP (PBMCs) [µM]	EC50 (HIV-1 (IIIB); read-out: MT4 HIV EC50) [nM]	Average PHH TFV-DP (PHHs) [µM]	CC50 (MT-4 cells) [nM]
38 (≈ 60.7 µM)	8	CC(C)CCCOC(=O)C(C)(C)NP(=O)(CO[C@H](C)Cn1cnc2c(N)ncnc21)NC(C)(C)C(=O)OCCCC(C)C [Example 67, Bis(4-methylpentyl) 2,2′-(((((1-(6-amino-9H-purin-9-yl)propan-2-yl)oxy)methyl)phosphoryl)bis(azanediyl))(R)-bis(2-methylpropanoate)]	–	–	–	–
–	–	CCCCCCOC(=O)C(C)(C)NP(=O)(CO[C@H](C)Cn1cnc2c(NC(=O)CCCSC(C)=O)ncnc21)NC(C)(C)C(=O)OCCCCCC [Example 97, Dihexyl 2,2′-(((((1-(6-(4-(acetylthio)butanamido)-9H-purin-9-yl)propan-2-yl)oxy)methyl)phosphoryl)bis(azanediyl))(R)-bis(2-methylpropanoate)]	1.4	13	1.60	10700
–	–	CCCCCCOC(=O)C(C)(C)NP(=O)(CO[C@H](C)Cn1cnc2c(NC(=O)CC(C)(C)c3c(C)cc(C)cc3OC(C)=O)ncnc21)NC(C)(C)C(=O)OCCCCCC [Example 100, Dihexyl 2,2′-(((((1-(6-(3-(2-acetoxy-4,6-dimethylphenyl)-3-methylbutanamido)-9H-purin-9-yl)propan-2-yl)oxy)methyl)phosphoryl)bis(azanediyl))(R)-bis(2-methylpropanoate)]	1.9	22	4.73	–

From US12110305B2, “Prodrugs of phosphonamide nucleotide analogues and their pharmaceutical use” (priority 2020, dated 2024)
